Assay [1] deals with T1, bradykinin 1 receptor (B1R) of the rat (Rattus norvegicus, UniProt P97583).
T1 construct: expressed in transfected cells; host or cells: CHO K1 cells
T1 sequence (P97583 1-337): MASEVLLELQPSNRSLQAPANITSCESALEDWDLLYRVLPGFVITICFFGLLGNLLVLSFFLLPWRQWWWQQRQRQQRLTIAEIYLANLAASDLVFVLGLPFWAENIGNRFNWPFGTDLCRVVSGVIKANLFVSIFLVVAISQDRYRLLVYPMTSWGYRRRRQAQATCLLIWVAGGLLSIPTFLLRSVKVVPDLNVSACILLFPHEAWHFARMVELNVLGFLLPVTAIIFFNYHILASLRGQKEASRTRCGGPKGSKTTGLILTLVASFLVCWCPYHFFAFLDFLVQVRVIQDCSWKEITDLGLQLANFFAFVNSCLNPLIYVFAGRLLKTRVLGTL
The experiment in a line: Functional investigation on the rat bradykinin 1 receptor (B1R), Ca2+ FLIPR assay in CHO K1 rB1R cells. Type of assay: cell-based. The following applies: CHO-K1, B1R antagonism rat; test substance 10 μM; Ca2+ FLIPR, CHO K1 rB1R cells; read-out: B1R Ant. r [10 μM] % Inhibition. The source says: (§1) Functional Investigation on the Human Bradykinin 1 Receptor (B1R)
(§2) The agonistic or antagonistic action of substances can be determined on the bradykinin 1 receptor (B1R) of the human species and rats with the following assay. In accordance with this assay, the Ca^2+ inflow through the channel is quantified with the aid of a Ca^2=-sensitive dyestuff (type Fluo-4, Molecular Probes Europe BV, Leiden, Holland) in a fluorescent imaging plate reader (FLIPR, Molecular Devices, Sunnyvale, USA).
(§3) Chinese hamster ovary cells (CHO K1 cells) transfected stably with the human B1R gene (hB1R cells) or the B1R gene of the rat (rB1R cells) are used. For functional studies, these cells are plated out on black 96-well plates with a clear base (BD Biosciences, Heidelberg, Germany or Greiner, Frickenhausen, Germany) in a density of 20,000-35,000 cells/well. The cells are left overnight at 37° C. and 5% CO2 in culture medium (hB1R cells: Nutrient Mixture Ham's F12, Gibco Invitrogen GmbH, Karlsruhe, Germany or DMEM, Sigma-Aldrich, Taufkirchen, Germany; rB1R cells: D-MEM/F12, Gibco Invitrogen GmbH, Karlsruhe, Germany) with 10 vol. % of FBS (foetal bovine serum, Gibco Invitrogen GmbH, Karlsruhe, Germany or PAN Biotech GmbH, Aidenbach, Germany).
(§4) On the following day, the cells are loaded for 60 min at 37° C. with 2.13 μM Fluo-4 (Molecular Probes Europe BV, Leiden, The Netherlands) in HBSS buffer (Hank's buffered saline solution, Gibco Invitrogen GmbH, Karlsruhe, Germany) with 2.5 mM probenecid (Sigma-Aldrich, Taufkirchen, Germany) and 10 mM HEPES (Sigma-Aldrich, Taufkirchen, Germany). The plates are then washed 2× with HBSS buffer, and HBSS buffer which additionally contains 0.1% of BSA (bovine serum albumin; Sigma-Aldrich, Taufkirchen, Germany), 5.6 mM glucose and 0.05% of gelatine (Merck KGaA, Darmstadt, Germany) is added. After a further incubation of 20 minutes at room temperature, the plates are inserted into the FLIPR for the Ca^2+ measurement.
(§5) Alternatively, the plates are washed with buffer A (15 mM HEPES, 80 mM NaCl, 5 mM KCl, 1.2 mM CaCl2, 0.7 mM MgSO4, 2 g/l glucose, 2.5 mM probenecid), buffer A is added and the plates are loaded with 2.5 μM Fluo-4 and 0.025% of Pluronic F127 (Sigma-Aldrich, Taufkirchen, Germany). Thereafter, the cells are washed 2× with buffer A and incubated for 30 minutes with buffer A, which additionally contains 0.05% of BSA and 0.05% of gelatine, at room temperature and thereafter inserted into the FLIPR for the Ca^2+ measurement.
(§6) The Ca^2+-dependent fluorescence is measured before and after addition of substances (λex=488 nm, λem=540 nm). Quantification is by measurement of the highest fluorescence intensity (FC, fluorescence counts) over time.
(§7) The FLIPR protocol consists of 2 additions of substance. Test substances (10 μM) are first pipetted on to the cells and the Ca^2+ inflow is compared with the control (hB1R: Lys-Des-Arg^9-bradykinin >=50 nM; rB1R: Des-Arg^9-bradykinin 10 μM). This gives the information in % activation based on the Ca^2+ signal after addition of Lys-Des-Arg^9-bradykinin (>=50 nM) or Des-Arg^9-bradykinin (10 μM).
(§8) After incubation for 10-20 minutes, Lys-Des-Arg^9-bradykinin (hB1R) or Des-Arg^9-bradykinin (rB1R) is applied in the concentration of the EC80 and the inflow of Ca^2+ is likewise determined.
(§9) Antagonists lead to a suppression of the Ca^2+ inflow. % inhibition compared with the maximum achievable inhibition is calculated.
(§10) To determine the IC50 value, the substances are added in various concentrations. Duplicate or triplicate determinations (n=2 or n=3) are carried out, and these are repeated in at least one further independent experiment (N>=2).
(§11) Preferably, the compounds have a B1R antagonistic action on the human receptor and/or on the rat receptor. The following data are given by way of example in the following table: (In this, “B1R Ant. h” represents “B1R antagonism human” and “B1R Ant. r” represents “B1R antagonism rat”)

The target in assay [2] is T2, human bradykinin 1 receptor (B1R) (Homo sapiens, UniProt P46663).
T2 construct: expressed in transfected cells; host or cells: CHO K1 cells
T2 sequence (P46663 1-353): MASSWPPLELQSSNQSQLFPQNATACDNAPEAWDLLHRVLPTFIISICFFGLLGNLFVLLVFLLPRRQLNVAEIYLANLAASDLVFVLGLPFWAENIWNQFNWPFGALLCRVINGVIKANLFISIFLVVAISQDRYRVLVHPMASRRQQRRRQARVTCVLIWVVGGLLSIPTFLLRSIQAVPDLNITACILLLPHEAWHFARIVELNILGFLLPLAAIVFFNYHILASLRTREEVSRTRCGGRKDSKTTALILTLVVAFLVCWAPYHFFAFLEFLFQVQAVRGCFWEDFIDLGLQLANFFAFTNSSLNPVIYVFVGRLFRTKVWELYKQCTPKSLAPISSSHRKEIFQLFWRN
The experiment in a line: Functional investigation on the human bradykinin 1 receptor (B1R), Ca2+ FLIPR assay in CHO K1 hB1R cells. It counts as cell-based. The following applies: CHO-K1, B1R antagonism human; test substance 10 μM; Ca2+ FLIPR, CHO K1 hB1R cells; read-out: B1R Ant. h [10 μM] % Inhibition.
Description: as §1, §2, §3, §4, §5, §6, §7, §8, §9, §10, §11

As a reminder, the inhibition is the drop in the measured response relative to a control, in per cent. Consider `O=C(COCCN(C1CC1)S(=O)(=O)c1c(Cl)cc(Cl)cc1Cl)NC1CCC(C(c2ccccc2)N2CCOCC2)CC1` (stereo not shown) [Example 605, 2-{2-[cyclopropyl-(2,4,6-trichlorobenzenesulfonyl)-amino]-ethoxy}-N-[4-(morpholin-4-yl-phenylmethyl)-cyclohexyl]-acetamide], for which the inhibition at 10 µM in assay [1] came to 38%; in assay [2] it was 40%.

Regarding `CN(C)C(c1ccccc1)C1CCC(NC(=O)CCNC(=O)c2nc(-c3ccccn3)no2)CC1` (stereo not shown) [Example 771, 3-pyridin-2-yl-[1,2,4]oxadiazole-5-carboxylic acid {2-[4-(dimethylamino-phenyl-methyl)-cyclohexylcarbamoyl]-ethyl}-amide], the inhibition at 10 µM in assay [1] was 8%; in assay [2], -16%.

With `CN(C)C(c1cccs1)C1CCC(NC(=O)CNC(=O)c2nc(-c3ccc(C(F)(F)F)cc3)no2)CC1` (stereo not shown) [Example 777, 3-(4-trifluoromethyl-phenyl)-[1,2,4]oxadiazole-5-carboxylic acid {[4-(dimethylamino-thiophen-2-yl-methyl)-cyclohexylcarbamoyl]-methyl}-amide], the inhibition at 10 µM in assay [1] is 27%; in assay [2] it was -1%.

With `CN(C)C(c1ccccc1)C1CCC(NC(=O)CNC(=O)c2nc(-c3ccc(C(C)(C)C)cc3)no2)CC1` (stereo not shown) [Example 766, 3-(4-tert-butyl-phenyl)-[1,2,4]oxadiazole-5-carboxylic acid {[4-(dimethylamino-phenyl-methyl)-cyclohexylcarbamoyl]-methyl}-amide], the inhibition at 10 µM is -9% in assay [1] and 6% in assay [2].

With `COc1ccc(-c2noc(C(=O)NCC(=O)NC3CCC(C(c4ccccc4)N(C)C)CC3)n2)cc1OC` (stereo not shown) [Example 775, 3-(3,4-dimethoxy-phenyl)-[1,2,4]oxadiazole-5-carboxylic acid {[4-(dimethylamino-phenyl-methyl)-cyclohexylcarbamoyl]-methyl}-amide], the inhibition at 10 µM in assay [1] was 20%; in assay [2] it was -7%.

Regarding `CN(C)C(CCc1ccccc1)C1CCC(NC(=O)CNC(=O)c2nc(-c3ccc(C(C)(C)C)cc3)no2)CC1` (stereo not shown) [Example 786, 3-(4-tert-butyl-phenyl)-[1,2,4]oxadiazole-5-carboxylic acid {[4-(1-dimethylamino-3-phenyl-propyl)-cyclohexylcarbamoyl]-methyl}-amide], the inhibition at 10 µM in assay [1] was -4%; in assay [2], 35%.

`CN(Cc1ccccc1)C(c1ccccc1)C1CCC(NC(=O)COCCN(C2CC2)S(=O)(=O)c2c(Cl)cc(Cl)cc2Cl)CC1` (stereo not shown) [Example 604, N-{4-[(benzylmethylamino)-phenylmethyl]-cyclohexyl}-2-{2-[cyclopropyl-(2,4,6-trichlorobenzenesulfonyl)-amino]-ethoxy}-acetamide]: the inhibition at 10 µM was 33% in assay [1] and -18% in assay [2].

As for `Cc1cc(Cl)cc(Cl)c1-c1noc(C(=O)NCC(=O)NC2CCC(C(c3ccccc3)N(C)C)CC2)n1` (stereo not shown) [Example 762, 3-(2,4-dichloro-6-methyl-phenyl)-[1,2,4]oxadiazole-5-carboxylic acid {[4-(dimethylamino-phenyl-methyl)-cyclohexylcarbamoyl]-methyl}-amide], the inhibition at 10 µM in assay [1] amounted to 25%; in assay [2] it was 73%.

As for `CN(C)C(c1cccc(F)c1)C1CCC(CNC(=O)CNC(=O)c2nc(-c3ccc(C(F)(F)F)cc3)no2)CC1` (stereo not shown) [Example 778, 3-(4-trifluoromethyl-phenyl)-[1,2,4]oxadiazole-5-carboxylic acid [({4-[dimethylamino-(3-fluoro-phenyl)-methyl]-cyclohexylmethyl}-carbamoyl)-methyl]-amide], the inhibition at 10 µM was 12% in assay [1] and -1% in assay [2].

Take `CN(C)C(c1cccc(F)c1)C1CCC(CNC(=O)CNC(=O)c2nc(CS(=O)(=O)c3ccccc3)no2)CC1` (stereo not shown) [Example 781, 3-benzenesulfonylmethyl-[1,2,4]oxadiazole-5-carboxylic acid [({4-[dimethylamino-(3-fluoro-phenyl)-methyl]-cyclohexylmethyl}-carbamoyl)-methyl]-amide]: the values for the inhibition at 10 µM in assay [1] and in assay [2] were -35% and -4%, respectively.

On to `CN(C)C(c1cccc(F)c1)C1CCC(CNC(=O)CCNC(=O)c2nc(-c3cccs3)no2)CC1` (stereo not shown) [Example 780, 3-thiophen-2-yl-[1,2,4]oxadiazole-5-carboxylic acid [2-({4-[dimethylamino-(3-fluoro-phenyl)-methyl]-cyclohexylmethyl}-carbamoyl)-ethyl]-amide], for which the results for the inhibition at 10 µM in assay [1] and in assay [2] were -2% and -12%, respectively.

In the case of `CN(C)C(c1ccccc1)C1CCC(NC(=O)CCNC(=O)c2nc(-c3cccs3)no2)CC1` (stereo not shown) [Example 776, 3-thiophen-2-yl-[1,2,4]oxadiazole-5-carboxylic acid {2-[4-(dimethylamino-phenyl-methyl)-cyclohexylcarbamoyl]-ethyl}-amide], the inhibition at 10 µM in assay [1] is 30%; in assay [2], -22%.

Consider `CN(C)C(c1ccccc1)C1CCC(NC(=O)CNC(=O)c2nc(-c3c(Cl)cccc3Cl)no2)CC1` (stereo not shown) [Example 770, 3-(2,6-dichloro-phenyl)-[1,2,4]oxadiazole-5-carboxylic acid {[4-(dimethylamino-phenyl-methyl)-cyclohexylcarbamoyl]-methyl}-amide], for which the inhibition at 10 µM in assay [1] was determined as 16%; in assay [2], 53%.

Regarding `CN(C)C(c1ccccc1)C1CCC(NC(=O)CCNC(=O)c2nc(-c3ccc(Cl)cc3Cl)no2)CC1` (stereo not shown) [Example 773, 3-(2,4-dichloro-phenyl)-[1,2,4]oxadiazole-5-carboxylic acid {2-[4-(dimethylamino-phenyl-methyl)-cyclohexylcarbamoyl]-ethyl}-amide], the inhibition at 10 µM in assay [1] came to 17%; in assay [2], 20%.

The values above are taken from patent US8106055B2, “Substituted amide compounds” (Gruenenthal GmbH, priority 2007, dated 2012).
